Measurements reported in publication PMC11489206, “Transport of perfluoroalkyl substances across human induced pluripotent stem cell-derived intestinal epithelial cells in comparison with primary human intestinal epithelial cells and Caco-2 cells” (Archives of Toxicology, 2024).
Like-named read-outs stand apart in the source and are kept apart here. Marks after values point to notes of the source that are not given here.

Columns and labels:
hiPSC-derived IEC layers = test system: hiPSC-derived IEC layers; design: method as in Kabeya et al. ([2020]); conditions: apical to basolateral, ref Kabeya et al. ([2020]); cited from earlier work
[1] = Transport study across hiPSC-derived IEC layers; conditions: human
Protocol: For differentiation into IECs, definitive endoderm cells were subsequently differentiated into intestinal stem cells by changing medium into DMEM/F12 containing 2% fetal bovine serum, 1% GlutaMAX (Gibco) and 250 ng/ml FGF2 (R&D Systems). After 4 days, cells were dissociated using Accutase and seeded onto polyester Transwell inserts (0.4 µm, Corning) coated with Growth Factor Reduced Matrigel #356231. Cells were cultured for 7 days in intestinal differentiation medium (DMEM/F-12 containing 2% fetal bovine serum, 1% non-essential amino acids (Gibco), 1 × B27 (Gibco), 1 × N2 (Gibco), 1% penicillin/streptomycin (Gibco) and 2 mM L-glutamine (Gibco)) supplemented with 20 ng/ml EGF (R&D Systems) and 30 µM Forskolin (Sigma). ROCK inhibitor, y-27632 (final concentration 10 µM; Stem Cell Technologies), was added during the initial 24 h after seeding to reduce cell death. The cells were subsequently cultured for 12 days in intestinal differentiation medium supplemented with 20 ng/ml EGF, 30 µM Forskolin, 5 µM 5-aza-2′-deoxycytidine (Sigma), 20 µM PD98059 (Stem Cell Technologies) and 0.5 µM A-83–01 (Sigma). The medium was refreshed every 2–3 days. Barrier integrity was determined by measuring apical to basolateral translocation of Lucifer yellow (see Supplementary Data for a detailed description).
(§1) Transport studies were performed in Caco-2 cells, hiPSC-derived IECs and EpiIntestinal microtissues. To that end, Caco-2 cell layers were differentiated for 21 days and hiPSCs were differentiated into IEC layers for 26 days, as described above. EpiIntestinal microtissues were subjected to transport studies 1 day after arrival. […] For all models, PFAS transport was assessed in apical to basolateral, and basolateral to apical direction using HBSS containing a mixture of PFASs containing 1 µM of each PFAS. See Supplementary Data for a detailed description of the method used for the transport studies of the model compounds and PFASs.
Prior to exposure to the transport study compounds, the cells were washed with transport medium (HBSS; Sigma). […] 100 µL aliquots were collected from the basolateral compartment and replaced with the same volume HBSS at settled time points (0, 15, 30 and 60 min). For basolateral to apical transport in the EpiIntestinal microtissues, 0.2 mL HBSS was added to the apical compartment and 0.5 mL HBSS containing a mixture of PFASs containing 1 µM of each PFAS, was added to the basolateral compartment. 100 µL aliquots were collected from the apical compartment and replaced with the same volume of HBSS at settled time points (0, 15, 30 and 60 min). For apical to basolateral transport across the Caco-2 cell layers and hiPSC-derived IEC layers, 1.2 mL HBSS was added to the basolateral compartment and 0.4 mL HBSS containing either model compounds (10 µM) or a mixture of PFASs containing 1 µM of each PFAS, was added to the apical compartment. 100 µL aliquots were collected from the basolateral compartment and replaced with the same volume of HBSS at settled time points (0, 7.5, 15, 30 and 60 min for the model compounds with both models and the PFASs with the hiPSC-derived IEC layers and 0, 15, 30 and 60 min for PFASs with the Caco-2 cell layers). For basolateral to apical transport, 0.4 mL HBSS was added to the apical compartment and 1.2 mL HBSS containing 10 µM of the model compounds or a mixture of PFASs containing 1 µM of each PFAS, was added to the basolateral compartment. 100 µL aliquots were collected from the apical compartment and replaced with the same volume of HBSS at settled time points (0, 7.5, 15, 30 and 60 min for the model compounds with both models and the PFASs with the hiPSC-derived IEC layers and 0, 15, 30 and 60 min for PFASs with the Caco-2 cell layers).

[2] = Transport study across Caco-2 cell layers; conditions: human, Caco-2
Protocol: Human colorectal adenocarcinoma cells (Caco-2, HTB-37) were obtained from American Type Culture Collection (ATCC, Manassas, VA). Cells were cultured in a humidified incubator (37°C, 5% CO2) in Dulbecco’s modified Eagle’s medium (DMEM) supplemented with 10% heat-inactivated fetal bovine serum (Gibco, Thermo Fisher Scientific, Waltham, MA), 1% non-essential amino acids (Gibco) and 1% penicillin/streptomycin (Sigma). For experiments, Caco-2 cells below passage number 50 were used within 10 passages. They were harvested at 80% confluence using Trypsin/EDTA (0.25%/0.05%; PAN Biotech, Aidenbach, Germany) and seeded at a density of 4 × 10^5 cells/cm^2 into inserts with a polycarbonate membrane (0.4 µm pore, Corning, New York, NY). After 21 days of differentiation (using 500 µl cell culture medium in the apical and 1500 µl in the basolateral compartment), monolayer integrity was determined by measuring transepithelial electrical resistance (TEER) with a Millicell ERS Volt-Ohm meter (Millipore, Bedford, MA).
as §1
(§2) Prior to exposure to the transport study compounds, the cells were washed with transport medium (HBSS; Sigma). […] 100 µL aliquots were collected from the basolateral compartment and replaced with the same volume HBSS at settled time points (0, 15, 30 and 60 min). For basolateral to apical transport in the EpiIntestinal microtissues, 0.2 mL HBSS was added to the apical compartment and 0.5 mL HBSS containing a mixture of PFASs containing 1 µM of each PFAS, was added to the basolateral compartment. 100 µL aliquots were collected from the apical compartment and replaced with the same volume of HBSS at settled time points (0, 15, 30 and 60 min). For apical to basolateral transport across the Caco-2 cell layers and hiPSC-derived IEC layers, 1.2 mL HBSS was added to the basolateral compartment and 0.4 mL HBSS containing either model compounds (10 µM) or a mixture of PFASs containing 1 µM of each PFAS, was added to the apical compartment. 100 µL aliquots were collected from the basolateral compartment and replaced with the same volume of HBSS at settled time points (0, 7.5, 15, 30 and 60 min for the model compounds with both models and the PFASs with the hiPSC-derived IEC layers and 0, 15, 30 and 60 min for PFASs with the Caco-2 cell layers). For basolateral to apical transport, 0.4 mL HBSS was added to the apical compartment and 1.2 mL HBSS containing 10 µM of the model compounds or a mixture of PFASs containing 1 µM of each PFAS, was added to the basolateral compartment. 100 µL aliquots were collected from the apical compartment and replaced with the same volume of HBSS at settled time points (0, 7.5, 15, 30 and 60 min for the model compounds with both models and the PFASs with the hiPSC-derived IEC layers and 0, 15, 30 and 60 min for PFASs with the Caco-2 cell layers). After 60 minutes, all liquid was collected from the apical and basolateral compartment and the cells were lysed in 200 µL RIPA buffer (Thermo Fisher Scientific), and chemicals were quantified in the different compartments (apical, basolateral and cells) in order to calculate the mass balance.
(§3) The apparent permeability coefficient (Papp, cm/s) was calculated using the following equation: […]

Caco-2 model = conditions: cited from earlier work
EpiIntestinal model = conditions: apical to basolateral, ref Ayehunie et al. (2005); cited from earlier work
[3] = ref Ayehunie et al. (2005); cited from earlier work
[4] = Transport study across EpiIntestinal microtissues; conditions: human
Protocol: The human EpiIntestinal small intestinal microtissues, consisting of epithelial cells and an underlying lamina propria containing intestinal fibroblasts, were obtained from MatTek Life Sciences (Ashland, USA). Cell culture inserts (8.8 mm ID) were placed in 12-well plates and cells were maintained in 100 µl maintenance medium (MatTek Life Sciences) in the apical compartment and 5 ml maintenance medium in the basolateral compartment upon arrival. The transport studies were performed 1 day after arrival.
as §1, §2, §3
where A is the surface area (cm^2), dQ is the amount of the compound transported (nmol) over the respective time interval dt (s) and C0 is the initial concentration in the donor compartment (µM).

Row | Compound | Papp A→B at 60 min, 10 µM [1] [×10⁻⁶ cm/s] | Papp B→A at 60 min, 10 µM [1] [×10⁻⁶ cm/s] | Papp A→B at 60 min, 10 µM [2] [×10⁻⁶ cm/s] | Papp B→A at 60 min, 10 µM [2] [×10⁻⁶ cm/s] | Average Papp A - B (Caco-2 model; ref Ayehunie et al. 2018) [×10⁻⁶ cm/s] | Average Papp A - B (Caco-2 model; ref Yazdanian et al. 1998) [×10⁻⁶ cm/s] | Average Papp A–B (EpiIntestinal model) | Fa (fraction absorbed in humans) [3] [%] | Papp A→B at 60 min, 1 µM [4] [×10⁻⁶ cm/s] | Papp B→A at 60 min, 1 µM [4] [×10⁻⁶ cm/s] | efflux ratio at 60 min, 1 µM [4] | Papp A→B at 60 min, 1 µM [1] [×10⁻⁶ cm/s] | Papp B→A at 60 min, 1 µM [1] [×10⁻⁶ cm/s] | efflux ratio at 60 min, 1 µM [1] | Papp A→B at 60 min, 1 µM [2] [×10⁻⁶ cm/s] | Papp B→A at 60 min, 1 µM [2] [×10⁻⁶ cm/s] | efflux ratio at 60 min, 1 µM [2] | also measured
1 | CCCC(=O)Nc1ccc(OCC(O)CNC(C)C)c(C(C)=O)c1 (stereo not shown) [Acebutolol, acebutolol] | 1.95 ± 0.02 | 7.17 ± 0.27 | 0.42 ± 0.03 | 3.09 ± 0.07 | 0.4 | 0.51 | 0.4 ± 0.1^a × 10^–6 cm/s | 40 | – | – | – | – | – | – | – | – | – | Average Papp A–B (hiPSC-derived IEC layers): 2.35 ± 0.88 × 10^–6 cm/s; efflux ratio at 60 min, 10 µM [1]: 3.67; efflux ratio at 60 min, 10 µM [2]: 7.37; Average Papp A - B (Caco-2 model; ref Kabeya et al. 2020): 0.35 ×10⁻⁶ cm/s; Average Papp A - B (Caco-2 model; ref Liang et al. 2000): 0.51 ×10⁻⁶ cm/s
2 | CC(C)NCC(O)COc1ccc(CC(N)=O)cc1 (stereo not shown) [Atenolol, atenolol] | – | – | – | – | – | – | – | 50 | – | – | – | – | – | – | – | – | – | –
3 | CCOC(=O)[C@H](CCc1ccccc1)N[C@@H](C)C(=O)N1CCC[C@H]1C(=O)O [Enalapril, enalapril] | 2.95 ± 0.41 | 3.68 ± 0.1 | 0.28 ± 0.04 | 0.43 ± 0.05 | 0.2 | – | 0.4 ± 0.2^a × 10^–6 cm/s | 40 | – | – | – | – | – | – | – | – | – | Average Papp A–B (hiPSC-derived IEC layers): 1.93 ± 0.46 × 10^–6 cm/s; efflux ratio at 60 min, 10 µM [1]: 1.25; efflux ratio at 60 min, 10 µM [2]: 1.55; Average Papp A - B (Caco-2 model; ref Grès et al. 1998): 0.62 ×10⁻⁶ cm/s; Average Papp A - B (Caco-2 model; ref Kabeya et al. 2020): 0.19 ×10⁻⁶ cm/s; Average Papp A - B (Caco-2 model; ref Logoyda et al. 2018): 1.31 ×10⁻⁶ cm/s
4 | O=S(=O)(O)C(F)(F)C(F)(F)C(F)(F)C(F)(F)C(F)(F)C(F)(F)F [PFHxS, perfluorohexane sulfonate] | – | – | – | – | – | – | – | – | 12.5 ± 0.78 | 14.1 ± 0.67 | 1.13 | 3.95 ± 0.47 | 6.71 ± 0.43 | 1.7 | 8.78 ± 1.76 | 11.6 ± 0.2 | 1.33 | –
5 | O=C(O)C(F)(F)C(F)(F)C(F)(F)C(F)(F)C(F)(F)C(F)(F)C(F)(F)C(F)(F)F [PFNA, perfluorononanoic acid] | – | – | – | – | – | – | – | – | 8.48 ± 0.57 | 7.51 ± 0.5 | 0.89 | 1.95 ± 0.27 | 2.88 ± 0.28 | 1.48 | 4.55 ± 0.56 | 3.14 ± 0.33 | 0.69 | –
6 | O=C(O)C(F)(F)C(F)(F)C(F)(F)C(F)(F)C(F)(F)C(F)(F)C(F)(F)F [PFOA, perfluorooctanoic acid] | – | – | – | – | – | – | – | – | 7.31 ± 0.43 | 6.99 ± 0.82 | 0.96 | 3.27 ± 0.45 | 5.3 ± 0.42 | 1.62 | 4.23 ± 0.41 | 5.75 ± 0.97 | 1.36 | –
7 | O=S(=O)(O)C(F)(F)C(F)(F)C(F)(F)C(F)(F)C(F)(F)C(F)(F)C(F)(F)C(F)(F)F [PFOS, perfluorooctane sulfonate] | – | – | – | – | – | – | – | – | 5.97 ± 0.05 | 3.31 ± 0.22 | 0.55 | 0.63 ± 0.08 | 0.82 ± 0.17 | 1.31 | 2.88 ± 0.2 | 1.06 ± 11 | 0.37 | –
8 | CC(C)NCC(O)COc1cccc2ccccc12 (stereo not shown) [Propranolol, propranolol] | 26.7 ± 1.4 | 17.9 ± 0.93 | 11.8 ± 1.07 | 8.13 ± 0.12 | 12.9 | 21.8 | 9.4 ± 5.4^b × 10^–6 cm/s | – | – | – | – | – | – | – | – | – | – | Average Papp A - B (Caco-2 model; ref Artursson et al. 1991): 41.9 ×10⁻⁶ cm/s; Average Papp A - B (Caco-2 model; ref Grès et al. 1998): 34.4 ×10⁻⁶ cm/s; Average Papp A - B (Caco-2 model; ref Logoyda et al. 2018): 36.13 ×10⁻⁶ cm/s; Average Papp A - B (Caco-2 model; ref Nožinić et al. 2010): 0.12 ×10⁻⁶ cm/s; Average Papp A - B (Caco-2 model; ref Walgren et al. 1999): 35.3 ×10⁻⁶ cm/s
9 | C=C[C@H]1C[N@@]2CC[C@H]1C[C@@H]2[C@@H](O)c1ccnc2ccc(OC)cc12 [Quinidine, quinidine] | 22.3 ± 0.4 | 25.5 ± 1.17 | – | – | – | – | 7.9 ± 2.7^a × 10^–6 cm/s | – | – | – | – | – | – | – | – | – | – | –
10 | CC(=O)CC(c1ccccc1)c1c(O)c2ccccc2oc1=O (stereo not shown) [Warfarin, warfarin] | – | – | 17.9 ± 1.39 | 24.5 ± 0.94 | 28.6 | 21.1 | 36.7 ± 16.8^a × 10^–6 cm/s | – | – | – | – | – | – | – | – | – | – | Average Papp A - B (Caco-2 model; ref Artursson et al. 1991): 38.3 ×10⁻⁶ cm/s; Average Papp A - B (Caco-2 model; ref Gschwind et al. 2013): 22.7 ×10⁻⁶ cm/s
